Measured values as given in patent publication US20170049688A1, “Herbal Combinations For Treating Psoriasis” (Sirbal Ltd., priority 2015, published 2017).
Read-outs that look alike come from different tables or passages of the source.

Experiments:
[1] = cited from earlier work
[2] = cited from earlier work; remark: listed apart in the source
[3] = cited from earlier work; remark: listed apart in the source
HT29 colon cancer cells = assay: Viability of HT29 tumor cells (PI staining); format: cell-based; conditions: 24-hour exposure
Protocol: (§1) In another example, the effect of CXCR4 antagonists on the survival of NB4, HL60, Jurkat leukemic cells and HT29 colon cancer and prostate tumor cells was examined.
(§2) Following the incubation, the cells were stained with propidium iodide (PI) (Sigma, St. Louis, Mo.) and percent of viable PI-negative cells in culture was determined by FACScalibur analysis (Becton Dickinson Immunocytometry Systems), using CellQuest software.
as §2

mice = conditions: cited from earlier work
[4] = tested on: NB4, HL60, Jurkat leukemic cells; assay: Viability of leukemic cells (PI staining, FACS); format: cell-based, human; conditions: 24 hours
Protocol: as §1, §2, §2

murine melanoma = conditions: 5 mg/kg; cited from earlier work
[5] = tested on: mammary carcinoma of mice; conditions: intraperitoneal, 75 mg/kg; cited from earlier work
thymidine kinase = conditions: colon cancer cells; cited from earlier work
thymidylate synthase = conditions: colon cancer cells; cited from earlier work
[6] = tested on: hemolytic plaque forming cells in the spleens of mice; conditions: cited from earlier work
[7] = tested on: central stimulation in mice and rats; conditions: oral administration; cited from earlier work

O=C1c2cc(CO)cc(O)c2C(=O)c2c(OC3OC(CO)C(O)C(O)C3O)cccc21 (centres unmarked) [Aloe-emodin-8-glycoside]
ED50 (oral purgative) [1]: 71.6 mg/kg

O=C1c2cccc(O)c2C(=O)c2c(O)cc(CO)cc21 [Aloe-emodin]
half-life [2]: about 78 min

CC1=CCC(C(C)(C)O)CC1 (stereo not drawn) [Alpha-terpineol]
half life [2]: about 1.245 hours

OCC1=C[C@@H](O)[C@@H]2C=CO[C@@H](O[C@@H]3O[C@H](CO)[C@@H](O)[C@H](O)[C@H]3O)[C@H]12 [Aucubin]
half life [2]: about 42.5 minutes

Cc1ccc(C(C)C)cc1O [Carvacrol]
half life [2]: about 1.29 hours

CCC(=O)O[C@]1(C(=O)CCl)[C@@H](C)C[C@H]2[C@@H]3CCC4=CC(=O)C=C[C@]4(C)[C@@]3(F)[C@@H](O)C[C@@]21C [Clobetasol propionate]
solubility in water [3]: insoluble in water

C[C@H]1O[C@@H](O[C@H]2[C@@H](O)C[C@H](O[C@H]3[C@@H](O)C[C@H](O[C@H]4CC[C@@]5(C)[C@H](CC[C@@H]6[C@@H]5C[C@@H](O)[C@]5(C)[C@@H](C7=CC(=O)OC7)CC[C@]65O)C4)O[C@@H]3C)O[C@@H]2C)C[C@H](O)[C@@H]1O [Digoxin, reference compound]
effect on HT29 tumor cells (HT29 colon cancer cells): partial however significant effect | half life [2]: around 36 hours

Cc1cc(O)c2c(c1)C(=O)c1cc(O)cc(O)c1C2=O [Emodin]
effect on HT29 tumor cells (HT29 colon cancer cells): partial however significant effect | LD50 (mice): 0.56 g/k″g | concentrations inhibiting the growth of leukemic cells [4]: more than 5 microgram/ml | inhibition rate against murine melanoma (murine melanoma): 73% | ED50 (oral purgative) [1]: >500 mg/kg | inhibition against mammary carcinoma [5]: 45% | half-life [2]: approximately 227 min

CC(C)=CCC/C(C)=C/CO [Geraniol]
reduction of thymidine kinase expression (thymidine kinase): 2 fold | reduction of thymidylate synthase expression (thymidylate synthase): 2 fold

O=c1cc(-c2ccc(O)c(O)c2)oc2cc(O)cc(O)c12 [Luteolin]
half life [2]: about 1.2 hours

COc1cc(O)c2c(c1)C(=O)c1cc(C)cc(O)c1C2=O [Physcion]
ED50 (oral purgative) [1]: >500 mg/kg

COc1ccc(/C=C/c2cc(O)cc(O[C@@H]3O[C@H](CO)[C@@H](O)[C@H](O)[C@H]3O)c2)cc1O [Rhapontin]
half life [2]: about 23.5 minutes

O=C(O)c1cc(O)c2c(c1)C(=O)c1cccc(O[C@@H]3O[C@H](CO)[C@@H](O)[C@H](O)[C@H]3O)c1C2=O [Rhein-8-glucoside]
ED50 (oral purgative) [1]: 20.0 mg/kg

O=C(O)c1cc(O)c2c(c1)C(=O)c1cccc(O)c1C2=O [Rhein]
half-life [2]: about 205 min

O=C(O)c1cc(O)c2c(c1)[C@H]([C@H]1c3cc(C(=O)O)cc(O)c3C(=O)c3c(O[C@@H]4O[C@H](CO)[C@@H](O)[C@H](O)[C@H]4O)cccc31)c1cccc(O[C@@H]3O[C@H](CO)[C@@H](O)[C@H](O)[C@H]3O)c1C2=O [Sennoside A]
ED50 (oral purgative) [1]: 13.5 mg/kg

O=C(O)c1cc(O)c2c(c1)[C@@H]([C@H]1c3cc(C(=O)O)cc(O)c3C(=O)c3c(O[C@@H]4O[C@H](CO)[C@@H](O)[C@H](O)[C@H]4O)cccc31)c1cccc(O[C@@H]3O[C@H](CO)[C@@H](O)[C@H](O)[C@H]3O)c1C2=O [Sennoside B]
ED50 (oral purgative) [1]: 13.9 mg/kg

O=C(O)c1cc(O)c2c(c1)[C@H]([C@H]1c3cc(CO)cc(O)c3C(=O)c3c(O[C@@H]4O[C@H](CO)[C@@H](O)[C@H](O)[C@H]4O)cccc31)c1cccc(O[C@@H]3O[C@H](CO)[C@@H](O)[C@H](O)[C@H]3O)c1C2=O [Sennoside C]
ED50 (oral purgative) [1]: 13.3 mg/kg

O=C(O)c1cc(O)c2c(c1)[C@H]([C@@H]1c3cc(CO)cc(O)c3C(=O)c3c(O[C@@H]4O[C@H](CO)[C@@H](O)[C@H](O)[C@H]4O)cccc31)c1cccc(O[C@@H]3O[C@H](CO)[C@@H](O)[C@H](O)[C@H]3O)c1C2=O [Sennoside D]
ED50 (oral purgative) [1]: 13.8 mg/kg

O=C(O)C(=O)OC[C@H]1O[C@@H](Oc2cccc3c2C(=O)c2c(O)cc(C(=O)O)cc2[C@@H]3[C@H]2c3cc(C(=O)O)cc(O)c3C(=O)c3c(O[C@@H]4O[C@H](CO)[C@@H](O)[C@H](O)[C@H]4O)cccc32)[C@H](O)[C@@H](O)[C@@H]1O [Sennoside E]
ED50 (oral purgative) [1]: 13.5 mg/kg

O=C(O)C(=O)OC[C@H]1O[C@@H](Oc2cccc3c2C(=O)c2c(O)cc(C(=O)O)cc2[C@@H]3[C@@H]2c3cc(C(=O)O)cc(O)c3C(=O)c3c(O[C@@H]4O[C@H](CO)[C@@H](O)[C@H](O)[C@H]4O)cccc32)[C@H](O)[C@@H](O)[C@@H]1O [Sennoside F]
ED50 (oral purgative) [1]: 16.1 mg/kg

COc1cc(C(=O)O)ccc1O [Vanillic acid]
half life [2]: about 10.552 hours

C[C@@H]1O[C@@H](O[C@@H]2[C@@H](O)[C@H](OCCc3ccc(O)c(O)c3)O[C@H](CO)[C@H]2OC(=O)/C=C/c2ccc(O)c(O)c2)[C@H](O)[C@H](O)[C@H]1O [acetoside]
suppression of hemolytic plaque forming cells ([6]; oral dose of 100 mg/kg): 18%

O=C(/C=C/c1ccc(O)c(O)c1)O[C@@H]1C[C@](O)(C(=O)O)C[C@@H](O)[C@H]1O [chlorogenic acid]
potency of central stimulation relative to caffeine [7]: 1/6

O=P1(N(CCCl)CCCl)NCCCO1 (centres unmarked) [cyclophosphamide, reference compound]
suppression of hemolytic plaque forming cells ([6]; intraperitoneal dose of 30 mg/kg): 52.5%

CC[C@H](CC[C@@H](C)[C@H]1CC[C@H]2[C@@H]3CC=C4C[C@@H](O)CC[C@]4(C)[C@H]3CC[C@]12C)C(C)C [β-sitosterol]
half life [2]: about 0.966 hours

Emodin monoglucoside
ED50 (oral purgative) [1]: 103.6 mg/kg

jionoside B
suppression of hemolytic plaque forming cells ([6]; oral dose of 100 mg/kg): 36%
